# Test results reported in patent EP0360750A2, “Novel herbicide tolerant plants” (CIBA-GEIGY AG, priority 1988, dated 1990).
# Key:
# AHAS = AHAS enzyme assay: AHAS activity remaining in the presence of herbicides or amino acids; format: biochemical, Nicotiana tabacum; settings: for % AHAS activity remaining with Val / % AHAS activity remaining with Ile / % AHAS activity remaining with Leu: 10mM
# Procedure: The weight of the material to be assayed is determined either by weighing the pellet obtained by refrigerated centrifugation of a cell suspension or by weighing callus, leaf or root tissue placed into liquid nitrogen and macerated to a fine powder. One volume (in ml) of cold homogenization buffer equal to the weight (in g) of the cell suspension pellet or equal to two times the weight (in g) of tissue is added and the mixture is passed through a French pressure cell at 15,000 psi or is ground with sand in a mortar and pestle. All subsequent steps are carried out keeping the material cold (about 4°C). The cells are disrupted at 16,000 psi, collecting the cell exudate into a container on ice. The exudate is centrifuged 5 min at 10,000 rpm to clear the cell debris. The volume of the supernate is measured and enzyme grade ammonium sulfate added to 25 % saturation (144 mg (NH₄)₂SO₄ per ml supernate). The mixture is stirred on ice for 15 min, then centrifuged for 5 min at 10,000 rpm. The pellet is discarded and the supernate adjusted to 50 % saturation with ammonium sulfate (158 mg (NH₄)₂SO₄ per ml supernate). After stirring on ice for 15 min, the pellet is collected by centrifugation at 10,000 rpm for 5 min. The obtained pellet is dissolved in 1-2 ml of column buffer. The extract is desalted by application to a Sephadex G50 column equilibrated with column buffer. The sample is eluted with column buffer, collecting approximately 2 ml of sample for each ml of sample applied to the column.
# Homogenization buffer and column buffer are chosen depending on the source of the AHAS to be assayed: Tobacco homogenization buffer consists of: 50 mM NaH₂PO₄ buffer pH 7.0, 0.5 mM EDTA pH 7.0, 0.5 mM MgCl₂, 1 mM sodium pyruvate pH 7.0, 10 µM FAD, 1 mM PMSF, 10 % glycerol. Maize homogenization buffer consists of: 50 mM Tris pH 7.5, 1 mM EDTA pH 7.5, 5 mM MgCl₂, 20 mM sodium pyruvate pH 7.0, 10 µM FAD, 1 mM PMSF, 1 mM DTT, 1 mM TPP, 10 % glycerol. Tobacco column buffer consists of: 50 mM NaH₂PO₄ buffer pH 7.0, 0.1 mM EDTA, 0.5 mM MgCl₂, 10 µM FAD, 1 mM PMSF, 10 % glycerol. Maize column buffer consists of: 50 mM Tris pH 7.5, 5 mM MgCl₂, 10 µM FAD, 0.1 mM EDTA, 1 mM PMSF, 1 mM DTT, 10 % glycerol.
# 5-50 µl of an extract prepared according to EXAMPLE 30 are dissolved in a total volume of 0.5 ml of reaction mixture (see below). The mixture is incubated for 30 min at 37°C. The reaction is stopped by the addition of 50 µl of 6 N H₂SO₄. The mixture is incubated for 15 min at 60°C, then treated with 625 µl of a-naphthol reagent (500 µl 5 % a-naphthol in 2.5 M NaOH and 125 µl 25 mg/ml creatine) and incubated another 15 min at 60°C. If a precipitate has formed, this is spun out, and the absorbance measured at 520 nm. The amount of acetoin formed is calculated from a standard curve developed using 0.4 µg to 10 µg acetoin. The specific activity is expressed as pKat acetoin per mg protein.
# 1-20 µl of a sample are placed in a ELISA plate well with a total volume of 0.15 ml of reaction mixture. The mixture is reacted for 30 min at 37°C. The reaction is stopped by the addition of 50 µl of 2.4 M H₂SO₄ containing 1 % creatine. The mixture is incubated for 30 min at 60°C. Any precipitate present is separated by centri fugation. 150 µl of the assay mixture are transferred to a new ELISA plate, treated with 100 µl 10 % a-naphthol in 5M NaOH and incubated another 20 min at 60°C. The absorbance is measured at 520 nm, and the specific activity expressed as under a).
# Ten point inhibition curves are generated by determining AHAS activity in the presence of sulfonylurea, imidazolinone and triazolopyrimidine herbicides. The sulfonylurea and triazolopyrimidine herbicides are included in the reaction mixture to give a range of final concentrations of the inhibitors between 1 nM and 10,000 nM. The imidazolinone herbicides are included in the concentration ranges of 10 nM to 100,000 nM. […]
# [1] = test system: transgenic tobacco plants; experiment: Leaf disc herbicide tolerance test of transgenic tobacco plants; format: cell-based, cv. Havana 38; settings: after 40 days
# Procedure: After 3-6 weeks of growth in light, the cultured tissue pieces are evaluated for their ability to form green shoots in the presence of the inhibitor. In analogy, sections from stems, petioles, roots, cotyledons, and hypocotyls are used. The herbicide tolerance of the transgenic plants obtained according to EXAMPLE 23 and 24 using CGA1402 are essentially determined as described in EXAMPLE 11a. Leaf discs are cut from different transgenic plants, weighed and then placed, lower side up, onto solidified MSBN medium containing 0, 10, 30, 100 and 300 ppb of SU872. The culture plates are incubated in the light at 25-28°C. […] Discs are inspected visually and evaluated for shoot and/or callus formation.
compound,measurement,setting,value
"COC(=O)c1ccccc1S(=O)(=O)NC(=O)Nc1nc(OC(F)F)cc(OC(F)F)n1 [SU872, 2-methoxycarbonyl-N-[(4,6-bis{difluoromethoxy}-pyrimidin-2-yl)-aminocarbonyl]benzenesulfonamide]",% AHAS activity remaining with SU872,"AHAS; 0.21µM, strain S3 (Table 2)",17%
same,% AHAS activity remaining with SU872,"AHAS; 0.21µM, strain Su 6 (Table 2)",27%
same,% AHAS activity remaining with SU872,"AHAS; 0.21µM, strain Su 8 (Table 2)",32%
same,% AHAS activity remaining with SU872,"AHAS; 0.21µM, strain Su 10 (Table 2)",39%
same,% AHAS activity remaining with SU872,"AHAS; 0.21µM, strain Su 20 (Table 2)",18%
same,% AHAS activity remaining with SU872,"AHAS; 0.21µM, strain Su 25 (Table 2)",20%
same,% AHAS activity remaining with SU872,"AHAS; 0.21µM, strain Su 27 (Table 2)",36%
same,% AHAS activity remaining with SU872,"AHAS; 0.21µM, strain Su 41 (Table 2)",15%
same,% AHAS activity remaining with SU872,"AHAS; 10.6µM, strain S3 (Table 2)",14%
same,% AHAS activity remaining with SU872,"AHAS; 10.6µM, strain Su 6 (Table 2)",12%
same,% AHAS activity remaining with SU872,"AHAS; 10.6µM, strain Su 8 (Table 2)",12%
same,% AHAS activity remaining with SU872,"AHAS; 10.6µM, strain Su 10 (Table 2)",15%
same,% AHAS activity remaining with SU872,"AHAS; 10.6µM, strain Su 20 (Table 2)",17%
same,% AHAS activity remaining with SU872,"AHAS; 10.6µM, strain Su 25 (Table 2)",18%
same,% AHAS activity remaining with SU872,"AHAS; 10.6µM, strain Su 27 (Table 2)",20%
same,% AHAS activity remaining with SU872,"AHAS; 10.6µM, strain Su 41 (Table 2)",12%
same,Mean mg fresh weight per disc ± standard deviation (n=7),"[1]; 10 ppb SU872, plant A3 (transformed with CGA1402, 35S/wild-type Arabidopsis AHAS)",2151 ± 995 mg
same,Mean mg fresh weight per disc ± standard deviation (n=7),"[1]; 10 ppb SU872, plant A4 (transformed with CGA1402, 35S/wild-type Arabidopsis AHAS)",2847 ± 548 mg
same,Mean mg fresh weight per disc ± standard deviation (n=7),"[1]; 10 ppb SU872, plant D2 (genomic clone of AHAS from chlorsulfuron tolerant mutant GH-50), discs bleached, not enlarged, no callus",70 ± 14 mg
same,Mean mg fresh weight per disc ± standard deviation (n=7),"[1]; 10 ppb SU872, plant type E (wild-type tobacco, cv. Havana 38), discs bleached, not enlarged, no callus",87 ± 19 mg
same,Mean mg fresh weight per disc ± standard deviation (n=7),"[1]; 30 ppb SU872, plant A3",180 ± 98 mg
same,Mean mg fresh weight per disc ± standard deviation (n=7),"[1]; 30 ppb SU872, plant A4",333 ± 174 mg
same,Mean mg fresh weight per disc ± standard deviation (n=7),"[1]; 100 ppb SU872, plant A3",33 ± 29 mg
same,Mean mg fresh weight per disc ± standard deviation (n=7),"[1]; 100 ppb SU872, plant A4",19 ± 15 mg
"CC(C)[C@H](N)C(=O)O [Val, valine]",% AHAS activity remaining with Val,AHAS; strain S3 (Table 2),69%
same,% AHAS activity remaining with Val,AHAS; strain Su 6 (Table 2),82%
same,% AHAS activity remaining with Val,AHAS; strain Su 8 (Table 2),81%
same,% AHAS activity remaining with Val,AHAS; strain Su 10 (Table 2),48%
same,% AHAS activity remaining with Val,AHAS; strain Su 20 (Table 2),75%
same,% AHAS activity remaining with Val,AHAS; strain Su 25 (Table 2),86%
same,% AHAS activity remaining with Val,AHAS; strain Su 27 (Table 2),91%
same,% AHAS activity remaining with Val,AHAS; strain Su 41 (Table 2),83%
"CC[C@H](C)[C@H](N)C(=O)O [Ile, isoleucine]",% AHAS activity remaining with Ile,AHAS; strain S3 (Table 2),80%
same,% AHAS activity remaining with Ile,AHAS; strain Su 6 (Table 2),66%
same,% AHAS activity remaining with Ile,AHAS; strain Su 8 (Table 2),95%
same,% AHAS activity remaining with Ile,AHAS; strain Su 10 (Table 2),102%
same,% AHAS activity remaining with Ile,AHAS; strain Su 20 (Table 2),58%
same,% AHAS activity remaining with Ile,AHAS; strain Su 25 (Table 2),100%
same,% AHAS activity remaining with Ile,AHAS; strain Su 27 (Table 2),92%
same,% AHAS activity remaining with Ile,AHAS; strain Su 41 (Table 2),97%
"CC(C)C[C@H](N)C(=O)O [Leu, leucine]",% AHAS activity remaining with Leu,AHAS; strain S3 (Table 2),38%
same,% AHAS activity remaining with Leu,AHAS; strain Su 6 (Table 2),58%
same,% AHAS activity remaining with Leu,AHAS; strain Su 8 (Table 2),61%
same,% AHAS activity remaining with Leu,AHAS; strain Su 10 (Table 2),62%
same,% AHAS activity remaining with Leu,AHAS; strain Su 20 (Table 2),53%
same,% AHAS activity remaining with Leu,AHAS; strain Su 25 (Table 2),84%
same,% AHAS activity remaining with Leu,AHAS; strain Su 27 (Table 2),81%
same,% AHAS activity remaining with Leu,AHAS; strain Su 41 (Table 2),71%
"COCCOc1ccccc1S(=O)(=O)NC(=O)Nc1nc(OC)nc(OC)n1 [SU464, 2-(2-methoxyethoxy)-N-[(4,6-dimethoxy-1,3,5-triazin-2-yl)-aminocarbonyl]benzenesulfonamide]",% AHAS activity remaining with SU464,"AHAS; 0.21µM, strain S3 (Table 2)",44%
same,% AHAS activity remaining with SU464,"AHAS; 0.21µM, strain Su 6 (Table 2)",36%
same,% AHAS activity remaining with SU464,"AHAS; 0.21µM, strain Su 8 (Table 2)",38%
same,% AHAS activity remaining with SU464,"AHAS; 0.21µM, strain Su 10 (Table 2)",37%
same,% AHAS activity remaining with SU464,"AHAS; 0.21µM, strain Su 20 (Table 2)",32%
same,% AHAS activity remaining with SU464,"AHAS; 0.21µM, strain Su 25 (Table 2)",32%
same,% AHAS activity remaining with SU464,"AHAS; 0.21µM, strain Su 27 (Table 2)",39%
same,% AHAS activity remaining with SU464,"AHAS; 0.21µM, strain Su 41 (Table 2)",32%
same,% AHAS activity remaining with SU464,"AHAS; 10.6µM, strain S3 (Table 2)",24%
same,% AHAS activity remaining with SU464,"AHAS; 10.6µM, strain Su 6 (Table 2)",15%
same,% AHAS activity remaining with SU464,"AHAS; 10.6µM, strain Su 8 (Table 2)",16%
same,% AHAS activity remaining with SU464,"AHAS; 10.6µM, strain Su 10 (Table 2)",20%
same,% AHAS activity remaining with SU464,"AHAS; 10.6µM, strain Su 20 (Table 2)",21%
same,% AHAS activity remaining with SU464,"AHAS; 10.6µM, strain Su 25 (Table 2)",18%
same,% AHAS activity remaining with SU464,"AHAS; 10.6µM, strain Su 27 (Table 2)",19%
same,% AHAS activity remaining with SU464,"AHAS; 10.6µM, strain Su 41 (Table 2)",21%
